Assay results published in ChEMBL document CHEMBL1201862, “PubChem BioAssay data set” (2004).
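Where inhibition never reached the appropriate level, the endpoint shown equals the highest concentration tested. Otherwise, values were interpolated linearly from a five-concentration, 48-hour dose response in 96-well plates. Abbreviation: GI50, concentration required for 50% inhibition of growth.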 Calls of active or inactive are those of the source. Cut-off read from the data, not from the text of the source: active = GI50 up to about 1.1 µM and inactive = higher.

Key:
Assay in all cases: NCI anticancer screen, dose series, 48 h
NCI-H226 = test system: NCI-H226
SK-MEL-5 = test system: SK-MEL-5
U-251 = test system: U-251
SK-MEL-2 = test system: SK-MEL-2
MOLT-4 = test system: MOLT-4
TK-10 = test system: TK-10
UACC-257 = test system: UACC-257
MCF7 = test system: MCF7
HT-29 = test system: HT-29
SR = test system: SR
A549 = test system: A549
SK-OV-3 = test system: SK-OV-3
RPMI-8226 = test system: RPMI-8226
Hs-578T = test system: Hs-578T
NCI/ADR-RES = test system: NCI/ADR-RES
HCT-15 = test system: HCT-15
SW-620 = test system: SW-620
KM12 = test system: KM12
COLO 205 = test system: COLO 205
MDA-MB-231 = test system: MDA-MB-231
SF-268 = test system: SF-268
T47D = test system: T47D
NCI-H522 = test system: NCI-H522
SF-295 = test system: SF-295
NCI-H23 = test system: NCI-H23
MDA-MB-435 = test system: MDA-MB-435
ACHN = test system: ACHN
PC-3 = test system: PC-3
OVCAR-3 = test system: OVCAR-3
HOP-92 = test system: HOP-92
CAKI-1 = test system: CAKI-1
MDA-N = test system: MDA-N
OVCAR-8 = test system: OVCAR-8
SNB-75 = test system: SNB-75
SK-MEL-28 = test system: SK-MEL-28
RXF 393 = test system: RXF 393
EKVX = test system: EKVX
A498 = test system: A498
SNB-19 = test system: SNB-19
NCI-H460 = test system: NCI-H460
HOP-62 = test system: HOP-62
LOX IMVI = test system: LOX IMVI
OVCAR-4 = test system: OVCAR-4
SN12C = test system: SN12C
IGROV-1 = test system: IGROV-1
M14 = test system: M14
786-0 = test system: 786-0
Malme-3M = test system: Malme-3M
UO-31 = test system: UO-31
SF-539 = test system: SF-539
K562 = test system: K562
BT-549 = test system: BT-549
HCT-116 = test system: HCT-116
DU-145 = test system: DU-145
OVCAR-5 = test system: OVCAR-5
HCC 2998 = test system: HCC 2998
UACC-62 = test system: UACC-62
CCRF-CEM = test system: CCRF-CEM
HL-60 = test system: HL-60

Measured: GI50

COc1ccc(/C=C(\NC(=O)c2ccccc2)C(=O)NN(C)c2ccnc3cc(Cl)ccc23)cc1OC
24.7 µM: HCT-15
inactive: NCI-H226 19.1 µM | SK-MEL-5 23.6 µM | U-251 19.7 µM | SK-MEL-2 21.3 µM | MOLT-4 18.2 µM | TK-10 36.7 µM | UACC-257 26.4 µM | MCF7 19.8 µM | HT-29 34.7 µM | SR 16.2 µM | A549 33 µM | SK-OV-3 > 100 µM | RPMI-8226 20 µM | Hs-578T 52.8 µM | NCI/ADR-RES 20.1 µM | SW-620 22.1 µM | KM12 17.6 µM | COLO 205 24.2 µM | MDA-MB-231 24.3 µM | SF-268 18.5 µM | T47D 30.4 µM | NCI-H522 21.8 µM | SF-295 36.2 µM | NCI-H23 24 µM | MDA-MB-435 21.3 µM | ACHN 26.1 µM | PC-3 27.4 µM | OVCAR-3 27.6 µM | HOP-92 21.4 µM | CAKI-1 28.8 µM | MDA-N 24.5 µM | OVCAR-8 23.4 µM | SNB-75 32.2 µM | SK-MEL-28 26 µM | RXF 393 18.9 µM | EKVX 50.7 µM | A498 > 100 µM | SNB-19 41.2 µM | NCI-H460 19 µM | HOP-62 41.3 µM | LOX IMVI 18.7 µM | OVCAR-4 30.7 µM | SN12C 25.9 µM | IGROV-1 17.2 µM | M14 22.6 µM | 786-0 27.6 µM | Malme-3M 26.1 µM | UO-31 28.2 µM | SF-539 21.5 µM | K562 18.9 µM | BT-549 20.4 µM | HCT-116 34.6 µM | DU-145 27.2 µM | OVCAR-5 45.9 µM

CSc1c(C)[n+]([O-])c2cc(Cl)c(Cl)cc2[n+]1[O-]
inactive: NCI-H226 13.1 µM | HCC 2998 18.8 µM | SK-MEL-5 17.7 µM | U-251 21.9 µM | SK-MEL-2 19.9 µM | MOLT-4 2.38 µM | TK-10 20.6 µM | UACC-257 17.9 µM | MCF7 19 µM | HT-29 18.1 µM | SR 3.13 µM | A549 > 100 µM | SK-OV-3 > 100 µM | RPMI-8226 9.73 µM | Hs-578T 24.2 µM | UACC-62 14.9 µM | NCI/ADR-RES 17.8 µM | SW-620 16.8 µM | KM12 31.4 µM | COLO 205 15.5 µM | MDA-MB-231 20.2 µM | SF-268 18.5 µM | T47D 20.8 µM | NCI-H522 12.2 µM | SF-295 > 56.8 µM | NCI-H23 16.2 µM | MDA-MB-435 18.5 µM | ACHN 16.8 µM | PC-3 18.6 µM | OVCAR-3 11.5 µM | HOP-92 16.2 µM | CAKI-1 18.2 µM | MDA-N 16 µM | OVCAR-8 16.6 µM | SNB-75 > 47.1 µM | SK-MEL-28 19 µM | RXF 393 21.5 µM | EKVX 16.3 µM | A498 21.6 µM | SNB-19 > 86.9 µM | NCI-H460 37.9 µM | HOP-62 33.3 µM | LOX IMVI 17.9 µM | OVCAR-4 16.4 µM | SN12C 16.4 µM | IGROV-1 14 µM | CCRF-CEM 2.32 µM | M14 19.8 µM | 786-0 17.3 µM | Malme-3M 16.9 µM | UO-31 16.3 µM | SF-539 44.8 µM | K562 3.32 µM | BT-549 18.3 µM | HCT-116 16.4 µM | DU-145 16.9 µM | OVCAR-5 17.4 µM
17 µM: HCT-15

CC(C)(C)NC1=NC(C(F)(F)F)(C(F)(F)F)NC(=O)N1
inactive: NCI-H226 > 100 µM | HCC 2998 27.4 µM | SK-MEL-5 24.8 µM | U-251 70.3 µM | SK-MEL-2 65.2 µM | MOLT-4 30.2 µM | TK-10 67.8 µM | UACC-257 54.2 µM | MCF7 37.8 µM | HT-29 36.9 µM | SR 37 µM | A549 35.1 µM | SK-OV-3 > 100 µM | RPMI-8226 36.9 µM | Hs-578T 58.2 µM | UACC-62 54.6 µM | NCI/ADR-RES 61 µM | SW-620 > 100 µM | KM12 68.4 µM | COLO 205 > 10 µM | MDA-MB-231 77.1 µM | SF-268 > 100 µM | T47D 28.3 µM | SF-295 39.7 µM | NCI-H23 > 100 µM | MDA-MB-435 37.1 µM | ACHN 39.7 µM | PC-3 34.8 µM | OVCAR-3 77.4 µM | HOP-92 20 µM | CAKI-1 46.1 µM | MDA-N 49.2 µM | OVCAR-8 80.4 µM | SNB-75 75.2 µM | SK-MEL-28 32.7 µM | RXF 393 > 100 µM | EKVX 84.1 µM | SNB-19 67.3 µM | NCI-H460 47.4 µM | HOP-62 > 100 µM | LOX IMVI 53 µM | OVCAR-4 36.3 µM | SN12C 54.7 µM | IGROV-1 64.1 µM | CCRF-CEM 31.2 µM | M14 44.5 µM | 786-0 52.4 µM | Malme-3M 34.4 µM | UO-31 53.6 µM | HL-60 16.5 µM | SF-539 > 100 µM | K562 30.7 µM | BT-549 16.9 µM | HCT-116 38.9 µM | DU-145 > 100 µM | OVCAR-5 > 100 µM
57 µM: HCT-15
